Test results from patent US5137907A, “1-(3-(4-(3,5-difluorophenoxy) phenoxy) propyl) - pyrazole, and its production and use” (Sumitomo Chemical Company, Limited, priority 1988, dated 1992).
Where two headings read alike, the source gives them in different places.

Assays:
[1] = test system: common mosquito (Culex pipiens pallens); assay: Inhibition of emergence of last instar larvae of common mosquito (Test Example 1); type: in vivo
Protocol: An emulsifiable concentrate prepared according to Formulation Example 1 was diluted with water to make a designed concentration. The dilution (0.7 ml) was added to 100 ml of distilled water. Last instar larvae of common mosquito (Culex pipiens pallens) were released therein and reared for 7 days until their emergence, and the concentration for 50% inhibition (IC50) was examined.

[2] = test system: housefly (Musca domestica); assay: Inhibition test on housefly larvae reared in artificial culture until pupation, pupae examined (Test Example 2); type: in vivo
Protocol: Powdered animal feed (2 g) was thoroughly mixed with bran (14 g). An emulsifiable concentrate prepared according to Formulation Example 1 was diluted with water to a designed concentration, and the dilution was added to the above mixture. The resultant mixture was stirred well to make an artificial culture. Thirty larvae of housefly (Musca domestica) were reared therein until their pupation. The obtained pupae were placed into a plastic cup, and the concentration for 50% inhibition was examined in the same manner as in Test Example 1.

[3] = last instar larvae, 0.7 ml dilution of emulsifiable concentrate added to 100 ml distilled water, reared for 7 days until emergence
[4] = thirty larvae reared in artificial culture (powdered animal feed 2 g, bran 14 g, diluted emulsifiable concentrate) until pupation, pupae placed into plastic cup

Structure (SMILES)	concentration for 50% inhibition (IC50) [1, 3] [ppm]	concentration for 50% inhibition (IC50) [2, 4] [ppm]	further results
COC(C)(C)CCCC(C)CC=CC(C)=CC(=O)OC(C)C (centres unmarked) [(A), methoprene]			concentration for 50% inhibition (IC50) ([1]; 168 h): 0.00018 ppm; concentration for 50% inhibition (IC50) [2]: 2.3 ppm
c1ccc(Oc2ccc(OCCCc3ccccn3)cc2)cc1 [(B)]	0.00013	> 3	
Cn1nccc1COc1ccc(Oc2ccccc2)cc1 [(C)]		> 3	
c1ccc(Oc2ccc(OCCn3cccn3)cc2)cc1 [(D)]	0.00023		
Clc1cccc(Oc2ccc(OCCn3cccn3)cc2)c1 [(E)]		1.0	
c1ccc(Oc2ccc(OCCCn3cccn3)cc2)cc1 [(F)]	0.0007		
Clc1cc(Cl)cc(Oc2ccc(OCCCn3cccn3)cc2)c1 [(G)]		1.8	
Fc1cc(F)cc(Oc2ccc(OCCCn3cccn3)cc2)c1 [Pyrazole compound (I), 1-{3-[4-(3,5-difluorophenoxy)phenoxy]propyl}pyrazole]	0.000009	0.14	
